Literature values, collected in patent publication US10563162B2, “Microbial electro-photosynthesis” (Arizona Board of Regents on behalf of Arizona State …, priority 2014, dated 2020).

Settings: listed property of redox mediator / natural electron acceptor; no method given

Row | Compound | midpoint potential (E^0,) [mV] | number of electrons transported (# e−)
1 | CC1=C(C)C(=O)C(C)=C(C)C1=O [Duroquinone] | 5 | 2
2 | O=C1C=CC(=O)C=C1 [Benzoquinone] | 280 | 2

The remaining lines, values ahead:

Row | midpoint potential (E^0,) [mV] | number of electrons transported (# e−) | Compound
3 | 64 | 2 | Thionine
4 | 80 | 2 | CC(C)=CCC/C(C)=C/CC/C(C)=C/CC/C(C)=C/CC/C(C)=C/CC/C(C)=C/CC/C(C)=C/CC/C(C)=C/CC/C(C)=C/CC1=CC(=O)C(C)=C(C)C1=O [Plastoquinone]
5 | 11 | 2 | CN(C)c1ccc2nc3ccc(=[N+](C)C)cc-3sc2c1 [Methylene Blue]
